Our source for the IC50 values is ChEMBL document CHEMBL1151711, “Studies on quinones. Part 44: Novel angucyclinone N-heterocyclic analogues endowed with antitumoral activity” (Bioorg Med Chem, 2008).

One test deals with HL-60. The test is described as follows: Cytotoxicity against human HL-60 cells after 3 days by MTT assay. The class given is functional, cell-based. To be noted: HL-60, 72 h.
A further test has as its system SK-MES-1. The test is described as follows: Cytotoxicity against human SK-MES-1 cells after 3 days by MTT assay. As to conditions: SK-MES-1, 72 h. The class given is functional, cell-based.
The subject of a further test is MRC5. The test is described as follows: Cytotoxicity against human MRC5 cells after 3 days by MTT assay. The class given is cell-based. As to conditions: MRC5, 72 h.
Another test has as its system AGS. The test is described as follows: Cytotoxicity against human AGS cells after 3 days by MTT assay. As to conditions: 72 h. The format is functional, cell-based.
Another test relates to J82. The test is described as follows: Cytotoxicity against human J82 cells after 3 days by MTT assay. The class given is functional, cell-based. As to conditions: J82, 72 h.

Regarding `Cn1c(=O)c2c3c(cnc2n(C)c1=O)C(=O)C=CC3=O`, the IC50 in the test with HL-60 came out at 31.5 µM; in the test with SK-MES-1, 67.5 µM; with MRC5 it was 72.8 µM; in the test with AGS, 82.1 µM; in the test with J82, 78.6 µM.
As for `Cc1nc2c(c3c1C(=O)c1ccccc1C3=O)C(=O)CCC2`, the 50% inhibitory concentration (IC50) in the test with HL-60 came out at 45.2 µM; with SK-MES-1, 11.9 µM; with MRC5 it was 21.5 µM; with AGS it was 9.5 µM; in the test with J82, 7.7 µM.
`O=C1c2ccccc2C(=O)c2c1cnc1c2C(=O)CCC1`: the IC50 came to 73.2 µM in the test on HL-60; 51.6 µM with SK-MES-1; 41.3 µM with MRC5; 19 µM in the test on AGS; 62.6 µM with J82.
For `O=C1c2c(O)cccc2C(=O)c2c3c(cc(O)c21)CCCC3`, the IC50 in the test on HL-60 is greater than 100 µM; in the test with SK-MES-1 it was 73.7 µM; in the test on MRC5 it was greater than 100 µM; in the test with AGS, 41.6 µM; in the test with J82, 69.9 µM.
Turning to `Cc1nc2c(c3c1C(=O)C=CC3=O)C(=O)CCC2`, the half-maximal inhibitory concentration (IC50) turned out to be 46.5 µM with HL-60; 3.5 µM in the test with SK-MES-1; 20.5 µM with MRC5; 22 µM in the test with AGS; 5.6 µM with J82.
The like results for `O=C1c2cnc3c(c2C(=O)c2cccc(O)c21)C(=O)CCC3` were, in that order, 5.6 µM, 3.7 µM, 11.3 µM, 1.6 µM and 9.2 µM.
Regarding `CC1(C)CC(=O)c2c(ncc3c2C(=O)C=CC3=O)C1`, the IC50 with HL-60 was 43.6 µM; in the test with SK-MES-1, greater than 100 µM; in the test with MRC5, 39.9 µM; in the test with AGS, 75.2 µM; with J82 it was 95.3 µM.
With `Cn1c(=O)c2c3c(cnc2n(C)c1=O)C(=O)c1c(O)cccc1C3=O`, the IC50 was 15.9 µM in the test on HL-60; 8.1 µM with SK-MES-1; 6.8 µM with MRC5; 5.9 µM with AGS; 9.2 µM in the test on J82.
Consider `Cc1nc2c(c3c1C(=O)c1c(O)cccc1C3=O)c(=O)n(C)c(=O)n2C`, for which the IC50 in the test with HL-60 was greater than 100 µM; in the test on SK-MES-1 it was greater than 100 µM; with MRC5, greater than 100 µM; in the test on AGS it was 70 µM; in the test on J82, greater than 100 µM.
Take `Cc1nc2c(c3c1C(=O)C=CC3=O)c(=O)n(C)c(=O)n2C`: the IC50 in the test with HL-60 was 26.3 µM; in the test with SK-MES-1, 70.2 µM; with MRC5 it was 67.1 µM; in the test on AGS, 50.3 µM; in the test on J82, 72.4 µM.
As for `Cn1c(=O)c2c3c(cnc2n(C)c1=O)C(=O)c1ccccc1C3=O`, the IC50 in the test on HL-60 came to 20.4 µM; in the test on SK-MES-1, 8.9 µM; in the test with MRC5 it was 12.6 µM; in the test on AGS, 3.5 µM; with J82, 8.7 µM.
The matching figures for `Cc1nc2c(c3c1C(=O)c1ccccc1C3=O)c(=O)n(C)c(=O)n2C`: greater than 100 µM, 5.2 µM, greater than 100 µM, 19.1 µM and 24.9 µM.
With `CC1(C)CC(=O)c2c(ncc3c2C(=O)c2cccc(O)c2C3=O)C1`, the IC50 came out at 2.3 µM with HL-60; 3.6 µM with SK-MES-1; 6.5 µM in the test on MRC5; 11.6 µM in the test on AGS; 3.9 µM in the test with J82.
Regarding `Cc1nc2c(c3c1C(=O)c1c(O)cccc1C3=O)C(=O)CC(C)(C)C2`, the IC50 in the test on HL-60 was found to be 11.8 µM; in the test on SK-MES-1, 4.6 µM; in the test with MRC5, 5.5 µM; with AGS it was 7.4 µM; in the test on J82, 15.7 µM.
For `O=C1c2cnc3c(c2C(=O)c2cccc(O)c21)CCCC3`, the IC50 with HL-60 was found to be 45.8 µM; in the test on SK-MES-1, 36.8 µM; in the test on MRC5 it was 63.6 µM; with AGS it was 36.8 µM; in the test with J82, 20.5 µM.
With `Cc1nc2c(c3c1C(=O)c1c(O)cccc1C3=O)C(=O)CCC2`, the half-maximal inhibitory concentration (IC50) in the test on HL-60 was found to be 23.9 µM; in the test on SK-MES-1, 10.2 µM; in the test with MRC5, 17.3 µM; in the test with AGS it was 4.5 µM; in the test on J82 it was 17.5 µM.
As for `Cc1nc2c(c3c1C(=O)c1ccccc1C3=O)C(=O)CC(C)(C)C2`, the IC50 with HL-60 is 17.5 µM; in the test with SK-MES-1, 13.5 µM; with MRC5 it was 15.9 µM; with AGS it was 4.5 µM; in the test with J82, 18.9 µM.
On to `Cc1cnc2c(c1)C(=O)c1c(cnc3c1C(=O)CCC3)C2=O`, for which the IC50 stood at 2.4 µM in the test with HL-60; 1.7 µM in the test on SK-MES-1; 0.73 µM in the test with MRC5; 1.2 µM in the test with AGS; 1.8 µM in the test with J82.
For the molecule `O=C1C=CC(=O)c2c1cnc1c2C(=O)CCC1`, the IC50 worked out at 15.8 µM with HL-60; 25.7 µM with SK-MES-1; 20.2 µM with MRC5; 19.4 µM in the test on AGS; 38.8 µM in the test on J82.
